According to patent US20120094939A1, “ANTI-VIRAL COMPOUNDS, COMPOSITIONS AND METHODS” (priority 2007, published 2012):
Where two headings read alike, the source gives them in different places.

Assays:
[1] = test system: OR6 cells harboring full-length genotype 1b HCV replicon ORN/C-5B/KE (HCV RNA replication); assay: microbe, parasite or virus in culture; assay type: cell-based, Hepatitis C virus (strain HCV—O; conditions: for proviral effect on HCV replication (in words) / antiviral activity (in words): OR6 full-length replicon; for proviral effect on HCV replication (in words): 0.1-100 μM
From the text: (§1) HCV Replicon System-Secondary Assays. For validation, OR6 cells stably harboring the full-length genotype 1 replicon, ORN/C-5B/KE9 were used to examine compound activity in a more authentic viral polyprotein context. This replicon was derived from the 1B-2 strain (strain HCV—O, genotype 1b), in which the Renilla luciferase gene is introduced as a fusion protein with neomycin to facilitate the monitoring of HCV replication. This construct contains a tissue culture adaptive mutation in the NS3 region. Cells were cultured in an identical manner to the Huh7/Rep-Feo cells.
Secondary Assays-Hit Validation. Several hits from primary HTS, as well as functionally related compounds, were purchased from Sigma (St. Louis, Mo.), Calbiochem (San Diego, Calif.), and Microsource (Gaylordsville, Conn.). […] Ten mM of stock solutions of the individual compounds to be tested was prepared in the appropriate solvent (DMSO, ethanol, or H2O, according to the manufacturer's information) and stored at −20° C. Cells were seeded into 96-well plates at a density of 2000 cells/well in 100 μL of medium. The cells were incubated for 24 hours at 37° C. to obtain the optimal level of adherence. Solutions of candidate hit compounds were added to wells to achieve final concentrations of 0.1, 1, 10, 50, and 100 μM. The final concentration of DMSO or ethanol in every well was 1% or less by volume. Mock solutions were used as a negative control. PEG-IFN and ribavirin were used as positive controls at various concentrations, alone and in combination. The plates were then incubated at 37° C. with 5% CO2 for 48 hours before they were analyzed. Luminescent signal was generated using the Renilla luciferase assay kit (Promega) according to the manufacturer's instructions. Signal was then detected using a LumiCount (Packard BioScience Company) luminometer. Cell viability was assessed using CellTiter-Glo (Promega), following the manufacturer's instructions. All experiments were performed in triplicate.
Secondary Assays-Data Analysis. Values were presented as a percentage of mock treated control, which was arbitrarily set at 100%. Data were expressed as the mean (±) SD. […] Synergy calculations were performed using CalcuSyn (Biosoft; Cambridge, England).
as §1, with “System—Secondary Assays:” for “System-Secondary Assays.”, “For replicon” for “For”, “ORN/C-5B/KE” for “ORN/C-5B/KE9”, “(Burke J. Am. Chem. Soc. (2004) 126:14095-14104).” for “to examine compound activity in a more authentic viral polyprotein context.”, “the Neomycin resistance cassette” for “neomycin”
Secondary Assays—Hit Validation: 10 mM of stock solutions of the individual compounds to be tested were prepared in DMSO and stored at −20° C. Cells were seeded into 96-well plates at a density of 2,000 cells/well in 100 μl of medium. The cells were incubated for 24 hours at 37° C. to obtain the optimal level of adherence. Solutions of candidate hit compounds were added to wells to achieve varying final concentrations between 0.01 and 100 μM. The final concentration of DMSO or ethanol in every well was 1% or less by volume. Mock solutions were used as a negative control. Peginterferon-alfa-2b (PEG-Intron; Schering Corp.; Kenilworth, N.J.) and ribavirin (Sigma; St. Louis, Mo.) were used as positive controls at various concentrations, alone and in combination. The plates were then incubated at 37° C. with 5% CO2 for 48 hours before they were analyzed. Luminescent signal was generated using the Renilla luciferase assay kit (Promega; Madison, Wis.) according to the manufacturer's instructions. Signal was then detected using a LumiCount™ (Packard BioScience Company; Downers Grove, Ill.) luminometer.

[2] = test system: Huh7/Rep-Feo HCV replicon (HCV RNA replication); assay type: cell-based, Hepatitis C virus (strain HCV—N, genotype 1b)
From the text: Development of the Huh7/Rep-Feo replicon assay. […] This replicon was derived from a chimpanzee infectious clone (strain HCV—N, genotype 1b). In this replicon, the structural genes have been replaced by a reporter gene. The chimeric reporter gene Feo encodes the firefly luciferase protein fused in-frame with neomycin phosphotransferase. This Huh7/Rep-Feo cell supports high levels of autonomous HCV RNA replication because it was derived from the HCV—N strain, which carries an adaptive mutation in NSSA that confers highlevel replication in tissue culture. Furthermore, the level of luciferase correlates well with levels of HCV RNA production, so that luciferase can be used as a reliable surrogate marker for HCV replication. The use of luciferase as a reporter permits quantitative and highthroughput detection of HCV replication levels. The specific use of firefly luciferase makes this replicon especially well-suited for automation, because the luciferase reagent can be added directly to the cell culture system prior to signal detection without the need for cell lysis, washing, or aspiration.
HCV Replicon System-Primary Screening. […] Briefly, this replicon harbors a subgenomic HCV genotype 1b sequence, fused to firefly luciferase, stably replicating under neomycin selection. Cells were propagated in Dulbecco's Modified Eagle's medium (DMEM) containing 10% fetal bovine serum (FBS) supplemented with 1% penicillin-streptomycin, and 500 μg of Geneticin (Invitrogen Corp., Carlsbad, Calif.)/mL. Cells were cultured in a 37° C., 5% CO2-humidified incubator for all experiments. To decrease day-today variability in the assay, a large homogenous population of subconfluent cells was passaged so that a similar lot of cells could be used throughout the HTS assay.
Primary Screening-HTS. Information about the library of known bioactive compounds that was screened and the general automated HTS protocol is available at http://www.broad.harvard.edu/chembio/index.html (see FIG. 10 for list of primary HTS with known bioactives library). Based on the results of optimization experiments in the 384-well plate format, the general HTS protocol was adapted as follows. Unless otherwise indicated, cells were incubated at all times in a humidified environment with 5% CO2 at 37° C. The assay was initiated by plating 30 μL of medium containing 2000 cells/well into white 384-well opaque-bottom plates (Nunc, Rochester, N.Y.) using an automated plate filler (Bio-Tek uFiller; Winsooki, Vt.) and allowing the cells to adhere for 24 hours. One hundred nL of compound stock solutions in DMSO was transferred from stock plates into the 384-well assay plates using an automated pin-based compound transfer robot (CyBio CyBi-Well vario; Woburn, Mass.). The final compound concentration in each well was estimated to be approximately 10-50 μM, with most compounds at 33 μM. The wells contained 0.33% DMSO by volume. The cells were then incubated for another 48 hours. The luminescent signal from each plate was detected using an automated plate reader (Perkin-Elmer Envision 1; Wellesley, Mass.). This screen was performed in duplicate. For negative controls, entire DMSO-treated control plates were employed, in addition to DMSO-only control wells that were incorporated into each compound assay plate. The cells were assayed for luciferase activity using the Bright-Glo Luciferase assay system (Promega), following the manufacturer's instructions. As a counter-screen, cell viability was assessed using the CellTiterGlo Luminescent cell viability assay (Promega) following the manufacturer's instructions.
Computational Data Analysis-Primary Screening. For each replicate, a mock-treatment distribution based on the total population of mock (DMSO) controls in that replicate was built (FIG. 11).

[3] = known bioactives library, approximately 10-50 μM, most at 33 μM

| SMILES | primary screen hit result (in words) [2, 3] | antiviral activity (in words) ([1]; 48 hours) | further results |
| --- | --- | --- | --- |
| CC(C)C[C@H](NC(=O)OCC1c2ccccc2-c2ccccc21)C(=O)O [N-(9-fluorenylmethoxycarbonyl)-L-leucine, reference compound] | proviral hit | – | proviral effect on HCV replication (in words) ([1]; 48 hours): mild proviral activity; primary screen hit result (in words) ([2]; known bioactives library, approximately 10-50 μM, most at 33 μM, listed as N-9-fluorenylmethoxycarbonyl-L-leucine): Proviral |
| CC1(C)C=Cc2cc3ccc(=O)oc3cc2O1 [xanthylentin, reference compound] | Proviral | – | – |
| CC(C)c1c(C(=O)Nc2ccccc2)c(-c2ccccc2)c(-c2ccc(F)cc2)n1CC[C@@H](O)C[C@@H](O)CC(=O)O [Atorvastatin, atorvastatin, reference compound] | – | strong antiviral effects | primary screen hit result (in words) [2]: Antiviral |
| C[C@]12C=CC(=O)C=C1CC[C@H]1[C@@H]3C[C@@H](O)[C@](O)(C(=O)CO)[C@@]3(C)C[C@H](O)[C@@]12F [Triamcinolone, triamcinolone, reference compound] | – | – | proviral effect on HCV replication (in words) ([1]; 48 hours): confirmed to increase HCV replication; primary screen hit result (in words) [2]: Proviral |
| CC(C)(O)[C@@H]1Cc2cc3ccc(=O)oc3cc2O1 [marmesin, reference compound] | Proviral | – | – |
| CC(C)C1COc2cc3oc(=O)ccc3cc2O1 (stereo not shown) [dihydrobliquin, reference compound] | Proviral | – | – |
| CC(C)NCC(O)COc1cccc2ccccc12 (stereo not shown) [propranolol, reference compound] | – | – | primary screen hit result (in words) [2]: Antiviral |
| C[C@]12C=CC(=O)C=C1CC[C@@H]1[C@@H]2[C@@H](O)C[C@@]2(C)[C@H]1CC[C@]2(O)C(=O)CO [prednisolone] | – | – | proviral effect on HCV replication (in words) ([1]; 48 hours): increased HCV replication |
| NC(=O)c1ncn([C@@H]2O[C@H](CO)[C@@H](O)[C@H]2O)n1 [ribavirin] | – | – | IC50 ([1]; Hepatitis C virus, OR6, 48 h, read-out: IC50 (HCV RNA replication, luciferase), OR6 full-length genotype 1b replicon, 48 hours): 50 to 100 µM |
| O=C1C2C=C(I)C(CC2OCCCCO)[C@@]12CCCO2 (stereo partly shown) [SM_A12B3] | – | negligible antiviral activity | – |
| CC[C@H](C)C(=O)O[C@H]1C[C@@H](C)C=C2C=C[C@H](C)[C@H](CC[C@@H]3C[C@@H](O)CC(=O)O3)[C@H]21 [Lovastatin, lovastatin] | – | weakly inhibitory | – |
| Oc1ccc(-c2nc(-c3ccc(F)cc3)c(-c3ccncc3)[nH]2)cc1 [SB 202109, reference compound] | inactive | inactive | – |
| COc1ccc(CCN(C)CCCC(C#N)(c2ccc(OC)c(OC)c2)C(C)C)cc1OC (stereo not shown) [verapamil] | – | did not exhibit antiviral activity | – |
| CC[C@H](C)C(=O)O[C@H]1C[C@H](O)C=C2C=C[C@H](C)[C@H](CC[C@@H](O)C[C@@H](O)CC(=O)O)[C@H]21 [Pravastatin, pravastatin] | – | – | inhibition at 100 µM ([1]; Hepatitis C virus, OR6, read-out: inhibition of HCV replication): 30% |
